Patent US7101863B2, “Pharmaceutical compositions with wound healing or anti-complementary activity comprising a dextran derivative” (Biodex, priority 2000, dated 2006)

Tests used:
gastric mucosa = assay: In-vivo gastric healing, macroscopic impairment of the gastric mucosa; set-up: species or system Sprague-Dawley rats; key: 0: Normal mucosa.; +: Small superficial hemorrhagic striae.; ++: Short and broad superficial hemorrhagic striae.; +++: Long and broad superficial hemorrhagic striae.; ++++: Perforations; settings: oral, dextran derivative and dextran T40 50 μg/kg, prostaglandin E2 10 μg/kg
Description: The animals employed are 12-week-old male Sprague-Dawley rats weighing from 200 to 250 g. Three batches of animals are used, with each consisting of 4 animals:
the first batch is treated with a dextran derivative of the general formula DMCaBbSuc in which a=0.75, b=0.25 and c=0.15, at the rate of 50 μg/kg,
the second batch serves as the control, with the animals being treated with a native dextran T40 (Pharmacia Fine Chemical; weight average molecular mass Mw: 37 500 g/mol; Mw/Mn: 1.7, with Mn representing the number average mass), at the rate of 50 μg/kg,
This batch therefore corresponds to a positive control.
The dextran derivative, the native dextran and the prostaglandin E2 are dissolved in physiological saline and administered orally to the animals.
The animals are sacrificed at different stages of healing, namely on D2, D4, D7 and D14, with the healing process being considered on days from the date on which the gastric irritation is induced. The gastric mucosa is recovered with a view to carrying out two studies:
quantification of the impairment of the gastric mucosa,
Table V represents a compilation of the results of the macroscopic study of the inflammatory reaction in the gastric mucosa, with the study being effected in accordance with the following scale: […]

right eye = assay: In-vivo ocular healing after sodium hydroxide burn, histological studies; set-up: species or system New Zealand white rabbits; settings: 100 μl three times daily; FGF-2 0.1 ng and/or dextran derivative 50 μg/ml
Description: 20 New Zealand white rabbits (10 males and 10 females) are used, with the rabbits being 1 year old and weighing from 2.5 to 3 kg; a 5.5 mm filter soaked in a 1N solution of sodium hydroxide was placed for 60 seconds on the right eye of these rabbits, which were then divided up into 4 groups of 5 animals each:
the first group is treated three times daily with 100 μl of a solution containing 0.1 ng of FGF-2 (Fibroblast Growth Factor-2);
the second group is treated three times daily with 100 μl of an isotonic solution containing 50 μg of a dextran derivative/ml of the general formula DMCaBbSuc in which a=0.75, b=0.31 and c=0.34;
the third group is treated three times daily with 100 μl of a solution containing 0.1 ng of FGF-2 and 50 μg of the above-mentioned dextran derivative/ml;
the fourth group (control group) is treated three times daily with 100 μl of a PBS buffer solution.
The speed of ocular healing in the four groups of animals is compared by means of histological studies carried out on days D1, D2, D4, D6 and D8.

complement system = assay: In-vivo anticomplementary action, hemolytic CH50 assay on rat serum; set-up: species or system Sprague-Dawley rats; settings: injection with Sephadex G25 20 μg and 50 μg of test substance
Excerpt: The anticomplementary action is studied by means of a hemolytic or CH50 assay, in accordance with a protocol in which the serum of the rats, withdrawn at different time intervals, is activated by sheep erythrocytes which are sensitized by rabbit antibodies directed against sheep red blood cells (EA). By definition, one CH50 unit corresponds to the concentration of complement proteins (contained in one milliliter of serum) which is capable of inducing the hemolysis of 50% of 2×10^7 activated EAs in a reaction medium where the volume, the temperature and the reaction time are kept constant. The number of hemolytic sites per cell is calculated.

CCCCC[C@H](O)/C=C/[C@H]1[C@H](O)CC(=O)[C@@H]1C/C=C\CCCC(=O)O [Prostaglandin E2, prostaglandin E2]
Impairment of the gastric mucosa (gastric mucosa; D2): ++ | Impairment of the gastric mucosa (gastric mucosa; D4): + | Impairment of the gastric mucosa (gastric mucosa; D7): + | Impairment of the gastric mucosa (gastric mucosa; D14): 0

FGF-2: Fibroblast Growth Factor-2
Duration of ocular healing (mean for each group of animals) (right eye): 5 days

native dextran
Inhibition of the activation of the complement (CH50) (complement system): did not have any effect
